In article PMC3445516 (PLoS ONE, 2012):

Columns and labels:
Experiment in all cases: Ambit kinase profiling, competition binding
STK33 = target: T1, STK33 (Homo sapiens, UniProt Q9BYT3); conditions: compound concentration 10 uM, read-out: Percent Competition
T1 construct: purchased Ambit Biosciences (KINOMEscan)
From the text: (§1) Supplement pone.0044653.s004.xls, sheet "Compound 122" | column: Percent Competition

PFTAIRE2 = target: T2, PFTAIRE2 (Homo sapiens, UniProt Q96Q40); conditions: compound concentration 10 uM, read-out: Percent Competition
T2 construct: purchased Ambit Biosciences (KINOMEscan)
From the text: as §1

BLK = target: T3, BLK (Homo sapiens, UniProt P51451); conditions: compound concentration 10 uM, read-out: Percent Competition
T3 construct: purchased Ambit Biosciences (KINOMEscan)
From the text: as §1

DCAMKL3 = target: T4, DCAMKL3 (Homo sapiens, UniProt Q9C098); conditions: compound concentration 10 uM, read-out: Percent Competition
T4 construct: purchased Ambit Biosciences (KINOMEscan)
From the text: as §1

ULK2 = target: T5, ULK2 (Homo sapiens, UniProt Q8IYT8); conditions: compound concentration 10 uM, read-out: Percent Competition
T5 construct: purchased Ambit Biosciences (KINOMEscan)
From the text: as §1

ZAK = target: T6, ZAK (Homo sapiens, UniProt Q9NYL2); conditions: compound concentration 10 uM, read-out: Percent Competition
T6 construct: purchased Ambit Biosciences (KINOMEscan)
From the text: as §1

MLCK = target: T7, MLCK (Homo sapiens, UniProt Q32MK0); conditions: compound concentration 10 uM, read-out: Percent Competition
T7 construct: purchased Ambit Biosciences (KINOMEscan)
From the text: as §1

MERTK = target: T8, MERTK (Homo sapiens, UniProt Q12866); conditions: compound concentration 10 uM, read-out: Percent Competition
T8 construct: purchased Ambit Biosciences (KINOMEscan)
From the text: as §1

PIK3CD = target: T9, PIK3CD (Homo sapiens, UniProt O00329); conditions: compound concentration 10 uM, read-out: Percent Competition
T9 construct: purchased Ambit Biosciences (KINOMEscan)
From the text: as §1

EPHB1 = target: T10, EPHB1 (Homo sapiens, UniProt P54762); conditions: compound concentration 10 uM, read-out: Percent Competition
T10 construct: purchased Ambit Biosciences (KINOMEscan)
From the text: as §1

AURKB = target: T11, AURKB (Homo sapiens, UniProt Q96GD4); conditions: compound concentration 10 uM, read-out: Percent Competition
T11 construct: purchased Ambit Biosciences (KINOMEscan)
From the text: as §1

NEK9 = target: T12, NEK9 (Homo sapiens, UniProt Q8TD19); conditions: compound concentration 10 uM, read-out: Percent Competition
T12 construct: purchased Ambit Biosciences (KINOMEscan)
From the text: as §1

RET(V804M) = target: T13, RET(V804M) (Homo sapiens, UniProt P07949, V804M); conditions: compound concentration 10 uM, read-out: Percent Competition
T13 construct: purchased Ambit Biosciences (KINOMEscan)
From the text: as §1

DRAK1 = target: T14, DRAK1 (Homo sapiens, UniProt Q9UEE5); conditions: compound concentration 10 uM, read-out: Percent Competition
T14 construct: purchased Ambit Biosciences (KINOMEscan)
From the text: as §1

MST2 = target: T15, MST2 (Homo sapiens, UniProt Q13188); conditions: compound concentration 10 uM, read-out: Percent Competition
T15 construct: purchased Ambit Biosciences (KINOMEscan)
From the text: as §1

[1] = target: T16, RPS6KA6(Kin.Dom.1-N-terminal) (Homo sapiens, UniProt Q9UK32); conditions: compound concentration 10 uM
T16 construct: RPS6KA6(Kin.Dom.1-N-terminal); purchased Ambit Biosciences (KINOMEscan)
From the text: as §1

PIK3CB = target: T17, PIK3CB (Homo sapiens, UniProt P42338); conditions: compound concentration 10 uM, read-out: Percent Competition
T17 construct: purchased Ambit Biosciences (KINOMEscan)
From the text: as §1

TNK1 = target: T18, TNK1 (Homo sapiens, UniProt Q13470); conditions: compound concentration 10 uM, read-out: Percent Competition
T18 construct: purchased Ambit Biosciences (KINOMEscan)
From the text: as §1

PIP5K2B = target: T19, PIP5K2B (Homo sapiens, UniProt P78356); conditions: compound concentration 10 uM, read-out: Percent Competition
T19 construct: purchased Ambit Biosciences (KINOMEscan)
From the text: as §1

SgK110 = target: T20, SgK110 (Homo sapiens, UniProt P0C264); conditions: compound concentration 10 uM, read-out: Percent Competition
T20 construct: purchased Ambit Biosciences (KINOMEscan)
From the text: as §1

FGFR2 = target: T21, FGFR2 (Homo sapiens, UniProt P21802); conditions: compound concentration 10 uM, read-out: Percent Competition
T21 construct: purchased Ambit Biosciences (KINOMEscan)
From the text: as §1

INSR = target: T22, INSR (Homo sapiens, UniProt P06213); conditions: compound concentration 10 uM, read-out: Percent Competition
T22 construct: purchased Ambit Biosciences (KINOMEscan)
From the text: as §1

KIT(V559D,T670I) = target: T23, KIT(V559D,T670I) (Homo sapiens, UniProt P10721, T670I/V559D); conditions: compound concentration 10 uM, read-out: Percent Competition
T23 construct: purchased Ambit Biosciences (KINOMEscan)
From the text: as §1

ERBB2 = target: T24, ERBB2 (Homo sapiens, UniProt P04626); conditions: compound concentration 10 uM, read-out: Percent Competition
T24 construct: purchased Ambit Biosciences (KINOMEscan)
From the text: as §1

LTK = target: T25, LTK (Homo sapiens, UniProt P29376); conditions: compound concentration 10 uM, read-out: Percent Competition
T25 construct: purchased Ambit Biosciences (KINOMEscan)
From the text: as §1

ALK = target: T26, ALK (Homo sapiens, UniProt Q9UM73); conditions: compound concentration 10 uM, read-out: Percent Competition
T26 construct: purchased Ambit Biosciences (KINOMEscan)
From the text: as §1

ABL1(F317I) = target: T27, ABL1(F317I) (Homo sapiens, UniProt P00519, F317I); conditions: compound concentration 10 uM, read-out: Percent Competition
T27 construct: purchased Ambit Biosciences (KINOMEscan)
From the text: as §1

FLT4 = target: T28, FLT4 (Homo sapiens, UniProt P35916); conditions: compound concentration 10 uM, read-out: Percent Competition
T28 construct: purchased Ambit Biosciences (KINOMEscan)
From the text: as §1

RET(V804L) = target: T29, RET(V804L) (Homo sapiens, UniProt P07949, V804L); conditions: compound concentration 10 uM, read-out: Percent Competition
T29 construct: purchased Ambit Biosciences (KINOMEscan)
From the text: as §1

SgK085 = target: T30, SgK085 (Homo sapiens, UniProt Q86YV6); conditions: compound concentration 10 uM, read-out: Percent Competition
T30 construct: purchased Ambit Biosciences (KINOMEscan)
From the text: as §1

CDK11 = target: T31, CDK11 (Homo sapiens, UniProt Q9BWU1); conditions: compound concentration 10 uM
T31 construct: purchased Ambit Biosciences (KINOMEscan)
From the text: as §1

PIP5K1A = target: T32, PIP5K1A (Homo sapiens, UniProt Q99755); conditions: compound concentration 10 uM, read-out: Percent Competition
T32 construct: purchased Ambit Biosciences (KINOMEscan)
From the text: as §1

ITK = target: T33, ITK (Homo sapiens, UniProt Q08881); conditions: compound concentration 10 uM
T33 construct: purchased Ambit Biosciences (KINOMEscan)
From the text: as §1

TNK2 = target: T34, TNK2 (Homo sapiens, UniProt Q07912); conditions: compound concentration 10 uM, read-out: Percent Competition
T34 construct: purchased Ambit Biosciences (KINOMEscan)
From the text: as §1

MET = target: T35, MET (Homo sapiens, UniProt P08581); conditions: compound concentration 10 uM
T35 construct: purchased Ambit Biosciences (KINOMEscan)
From the text: as §1

ABL1(T315I) = target: T36, ABL1(T315I) (Homo sapiens, UniProt P00519, T315I); conditions: compound concentration 10 uM, read-out: Percent Competition
T36 construct: purchased Ambit Biosciences (KINOMEscan)
From the text: as §1

IGF1R = target: T37, IGF1R (Homo sapiens, UniProt P08069); conditions: compound concentration 10 uM, read-out: Percent Competition
T37 construct: purchased Ambit Biosciences (KINOMEscan)
From the text: as §1

MAP4K5 = target: T38, MAP4K5 (Homo sapiens, UniProt Q9Y4K4); conditions: compound concentration 10 uM, read-out: Percent Competition
T38 construct: purchased Ambit Biosciences (KINOMEscan)
From the text: as §1

KIT(V559D,V654A) = target: T39, KIT(V559D,V654A) (Homo sapiens, UniProt P10721, V559D/V654A); conditions: compound concentration 10 uM, read-out: Percent Competition
T39 construct: purchased Ambit Biosciences (KINOMEscan)
From the text: as §1

TEC = target: T40, TEC (Homo sapiens, UniProt P42680); conditions: compound concentration 10 uM, read-out: Percent Competition
T40 construct: purchased Ambit Biosciences (KINOMEscan)
From the text: as §1

T30 sequence (Q86YV6 whole entry): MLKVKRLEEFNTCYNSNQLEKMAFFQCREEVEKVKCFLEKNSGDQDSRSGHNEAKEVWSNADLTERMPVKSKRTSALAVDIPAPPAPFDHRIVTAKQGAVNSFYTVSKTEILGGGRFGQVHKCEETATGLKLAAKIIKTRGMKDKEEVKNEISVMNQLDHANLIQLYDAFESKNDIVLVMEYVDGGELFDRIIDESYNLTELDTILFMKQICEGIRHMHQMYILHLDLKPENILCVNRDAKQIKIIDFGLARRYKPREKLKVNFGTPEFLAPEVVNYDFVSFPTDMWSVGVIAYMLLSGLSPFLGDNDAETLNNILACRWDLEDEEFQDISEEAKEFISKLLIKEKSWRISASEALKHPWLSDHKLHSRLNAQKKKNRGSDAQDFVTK
T34 sequence (Q07912 whole entry): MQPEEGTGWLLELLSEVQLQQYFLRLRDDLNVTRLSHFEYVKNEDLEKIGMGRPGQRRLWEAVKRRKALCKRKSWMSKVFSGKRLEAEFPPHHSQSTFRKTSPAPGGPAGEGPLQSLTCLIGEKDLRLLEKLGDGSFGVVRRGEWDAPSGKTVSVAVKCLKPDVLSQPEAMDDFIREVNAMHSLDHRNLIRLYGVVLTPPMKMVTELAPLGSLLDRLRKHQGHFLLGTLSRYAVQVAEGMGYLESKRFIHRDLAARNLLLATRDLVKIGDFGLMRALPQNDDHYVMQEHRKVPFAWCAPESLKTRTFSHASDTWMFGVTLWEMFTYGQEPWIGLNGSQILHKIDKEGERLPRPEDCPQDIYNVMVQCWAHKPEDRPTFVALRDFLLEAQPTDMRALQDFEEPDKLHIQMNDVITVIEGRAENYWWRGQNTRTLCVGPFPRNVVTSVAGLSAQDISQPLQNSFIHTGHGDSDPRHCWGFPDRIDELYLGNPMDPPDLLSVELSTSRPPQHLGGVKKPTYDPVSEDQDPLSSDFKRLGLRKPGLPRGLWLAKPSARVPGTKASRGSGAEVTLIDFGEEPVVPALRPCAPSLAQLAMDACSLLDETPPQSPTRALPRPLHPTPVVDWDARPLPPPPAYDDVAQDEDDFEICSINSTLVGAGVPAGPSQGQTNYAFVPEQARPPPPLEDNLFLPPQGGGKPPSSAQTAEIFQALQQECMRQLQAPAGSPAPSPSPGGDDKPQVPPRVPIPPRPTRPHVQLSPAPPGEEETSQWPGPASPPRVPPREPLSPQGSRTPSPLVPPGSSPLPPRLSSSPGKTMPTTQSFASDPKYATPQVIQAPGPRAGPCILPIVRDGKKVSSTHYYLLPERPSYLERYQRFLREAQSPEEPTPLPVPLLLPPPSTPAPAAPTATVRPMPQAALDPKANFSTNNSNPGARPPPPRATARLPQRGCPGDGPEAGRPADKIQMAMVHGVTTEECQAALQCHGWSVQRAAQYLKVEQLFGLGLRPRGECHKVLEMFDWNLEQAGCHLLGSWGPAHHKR
T25 sequence (P29376 17-864): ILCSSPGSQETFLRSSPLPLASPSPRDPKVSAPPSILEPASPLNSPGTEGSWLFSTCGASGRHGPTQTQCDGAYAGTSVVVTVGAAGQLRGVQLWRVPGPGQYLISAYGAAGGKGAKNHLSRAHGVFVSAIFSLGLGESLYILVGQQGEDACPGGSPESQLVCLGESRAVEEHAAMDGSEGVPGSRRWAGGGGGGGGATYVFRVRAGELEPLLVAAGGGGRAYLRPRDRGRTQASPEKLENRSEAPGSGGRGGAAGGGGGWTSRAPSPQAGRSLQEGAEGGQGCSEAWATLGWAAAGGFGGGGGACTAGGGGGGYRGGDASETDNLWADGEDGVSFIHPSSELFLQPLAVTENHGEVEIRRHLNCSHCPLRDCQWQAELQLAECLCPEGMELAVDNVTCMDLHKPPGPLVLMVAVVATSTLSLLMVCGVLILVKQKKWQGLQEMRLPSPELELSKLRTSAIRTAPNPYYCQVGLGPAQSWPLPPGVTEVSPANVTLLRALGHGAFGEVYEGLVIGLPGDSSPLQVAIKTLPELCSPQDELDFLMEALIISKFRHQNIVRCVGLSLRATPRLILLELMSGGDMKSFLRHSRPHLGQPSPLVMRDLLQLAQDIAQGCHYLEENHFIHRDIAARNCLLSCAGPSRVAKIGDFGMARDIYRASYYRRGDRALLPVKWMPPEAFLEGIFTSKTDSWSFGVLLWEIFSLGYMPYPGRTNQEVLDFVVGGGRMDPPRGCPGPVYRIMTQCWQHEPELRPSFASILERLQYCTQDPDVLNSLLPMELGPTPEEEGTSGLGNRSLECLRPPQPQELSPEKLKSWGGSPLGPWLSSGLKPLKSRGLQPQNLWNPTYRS
T39 sequence (P10721 26-976 V559D/V654A): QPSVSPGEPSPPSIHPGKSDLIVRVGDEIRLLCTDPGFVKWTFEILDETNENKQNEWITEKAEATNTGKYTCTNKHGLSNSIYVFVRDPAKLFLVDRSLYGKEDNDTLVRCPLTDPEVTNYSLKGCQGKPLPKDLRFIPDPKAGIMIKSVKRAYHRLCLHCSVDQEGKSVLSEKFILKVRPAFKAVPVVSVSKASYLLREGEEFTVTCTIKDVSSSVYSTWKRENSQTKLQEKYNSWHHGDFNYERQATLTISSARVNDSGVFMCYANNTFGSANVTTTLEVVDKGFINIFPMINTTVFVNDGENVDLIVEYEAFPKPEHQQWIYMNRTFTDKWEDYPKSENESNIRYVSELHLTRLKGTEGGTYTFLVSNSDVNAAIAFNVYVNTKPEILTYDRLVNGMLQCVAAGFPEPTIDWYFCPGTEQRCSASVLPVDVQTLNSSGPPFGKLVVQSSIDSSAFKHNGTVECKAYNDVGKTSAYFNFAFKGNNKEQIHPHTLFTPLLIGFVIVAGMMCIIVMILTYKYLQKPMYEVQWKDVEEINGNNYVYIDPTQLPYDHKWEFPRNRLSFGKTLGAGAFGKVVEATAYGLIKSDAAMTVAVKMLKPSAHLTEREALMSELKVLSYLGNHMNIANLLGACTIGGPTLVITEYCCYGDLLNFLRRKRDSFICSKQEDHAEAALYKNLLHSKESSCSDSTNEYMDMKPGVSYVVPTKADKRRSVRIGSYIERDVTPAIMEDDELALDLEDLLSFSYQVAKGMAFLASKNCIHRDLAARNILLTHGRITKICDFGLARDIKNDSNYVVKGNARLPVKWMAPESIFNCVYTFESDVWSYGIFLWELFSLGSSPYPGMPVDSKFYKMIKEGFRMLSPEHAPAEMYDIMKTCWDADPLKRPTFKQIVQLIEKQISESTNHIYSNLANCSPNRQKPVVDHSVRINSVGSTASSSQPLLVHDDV
T24 sequence (P04626 23-1255): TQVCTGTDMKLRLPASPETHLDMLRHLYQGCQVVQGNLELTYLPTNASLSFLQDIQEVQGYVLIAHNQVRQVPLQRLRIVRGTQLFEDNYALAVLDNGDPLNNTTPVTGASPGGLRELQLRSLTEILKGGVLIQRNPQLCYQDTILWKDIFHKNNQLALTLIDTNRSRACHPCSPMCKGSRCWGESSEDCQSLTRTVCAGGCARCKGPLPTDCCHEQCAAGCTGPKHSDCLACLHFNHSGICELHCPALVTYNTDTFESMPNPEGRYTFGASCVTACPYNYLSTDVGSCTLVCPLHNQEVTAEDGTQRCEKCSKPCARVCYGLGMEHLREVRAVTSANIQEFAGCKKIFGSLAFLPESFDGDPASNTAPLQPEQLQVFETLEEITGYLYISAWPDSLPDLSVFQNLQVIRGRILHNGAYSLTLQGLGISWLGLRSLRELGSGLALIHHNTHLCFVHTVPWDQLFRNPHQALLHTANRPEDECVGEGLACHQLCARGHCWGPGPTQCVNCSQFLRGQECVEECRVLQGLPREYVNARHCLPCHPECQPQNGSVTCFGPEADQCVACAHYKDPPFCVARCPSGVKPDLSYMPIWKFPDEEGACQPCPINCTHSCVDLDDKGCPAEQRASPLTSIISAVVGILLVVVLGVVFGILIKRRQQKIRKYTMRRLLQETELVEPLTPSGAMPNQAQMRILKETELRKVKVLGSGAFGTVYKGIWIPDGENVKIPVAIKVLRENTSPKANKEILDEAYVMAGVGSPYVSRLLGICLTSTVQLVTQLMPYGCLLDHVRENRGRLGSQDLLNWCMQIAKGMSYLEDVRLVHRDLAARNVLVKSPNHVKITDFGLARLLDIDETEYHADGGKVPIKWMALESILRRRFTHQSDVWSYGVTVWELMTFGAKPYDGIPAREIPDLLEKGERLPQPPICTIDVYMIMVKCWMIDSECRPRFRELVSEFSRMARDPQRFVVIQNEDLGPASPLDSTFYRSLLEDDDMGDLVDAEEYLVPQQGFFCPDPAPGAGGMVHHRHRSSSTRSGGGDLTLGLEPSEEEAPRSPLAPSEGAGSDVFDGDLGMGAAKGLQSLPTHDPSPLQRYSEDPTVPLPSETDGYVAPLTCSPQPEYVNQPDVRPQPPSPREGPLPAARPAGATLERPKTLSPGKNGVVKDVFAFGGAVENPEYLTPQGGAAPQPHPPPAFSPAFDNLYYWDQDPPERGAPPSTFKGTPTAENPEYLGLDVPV
T15 sequence (Q13188 whole entry): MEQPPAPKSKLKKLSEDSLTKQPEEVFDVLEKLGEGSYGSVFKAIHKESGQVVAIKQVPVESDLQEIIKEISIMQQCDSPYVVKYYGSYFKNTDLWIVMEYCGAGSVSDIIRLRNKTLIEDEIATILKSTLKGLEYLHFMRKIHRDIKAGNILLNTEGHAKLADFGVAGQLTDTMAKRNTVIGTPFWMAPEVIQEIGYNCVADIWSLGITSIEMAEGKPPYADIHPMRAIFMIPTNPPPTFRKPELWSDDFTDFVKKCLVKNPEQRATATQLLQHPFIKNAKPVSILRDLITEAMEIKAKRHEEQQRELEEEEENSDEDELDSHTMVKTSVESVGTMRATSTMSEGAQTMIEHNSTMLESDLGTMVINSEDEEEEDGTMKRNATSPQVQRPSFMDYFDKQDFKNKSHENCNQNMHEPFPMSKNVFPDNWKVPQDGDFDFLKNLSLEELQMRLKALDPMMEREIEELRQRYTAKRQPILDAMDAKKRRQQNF
T23 sequence (P10721 26-976 V559D/T670I): as the sequence (P10721 26-976 V559D/V654A) above, with A629V, T645I counted along it

Fc1ccc(-c2c(-c3ccncc3)[nH]c3nccnc23)cc1 [RO1155697-000-005]
inhibition at 10 µM (STK33): < 50%
inhibition at 10 µM (PFTAIRE2): < 50%
inhibition at 10 µM (BLK): < 50%
inhibition at 10 µM (DCAMKL3): < 50%
inhibition at 10 µM (ULK2): < 50%
inhibition at 10 µM (ZAK): < 50%
inhibition at 10 µM (MLCK): < 50%
inhibition at 10 µM (MERTK): < 50%
inhibition at 10 µM (PIK3CD): < 50%
inhibition at 10 µM (EPHB1): < 50%
inhibition at 10 µM (AURKB): < 50%
inhibition at 10 µM (NEK9): < 50%
inhibition at 10 µM (RET(V804M)): < 50%
inhibition at 10 µM (DRAK1): < 50%
inhibition at 10 µM (MST2): < 50%
Percent Competition [1]: <50%
inhibition at 10 µM (PIK3CB): < 50%
inhibition at 10 µM (TNK1): < 50%
inhibition at 10 µM (PIP5K2B): < 50%
inhibition at 10 µM (SgK110): < 50%
inhibition at 10 µM (FGFR2): < 50%
inhibition at 10 µM (INSR): < 50%
inhibition at 10 µM (KIT(V559D,T670I)): < 50%
inhibition at 10 µM (ERBB2): < 50%
inhibition at 10 µM (LTK): < 50%
inhibition at 10 µM (ALK): < 50%
inhibition at 10 µM (ABL1(F317I)): < 50%
inhibition at 10 µM (FLT4): < 50%
inhibition at 10 µM (RET(V804L)): < 50%
inhibition at 10 µM (SgK085): < 50%
Percent Competition (CDK11): <50%
inhibition at 10 µM (PIP5K1A): < 50%
Percent Competition (ITK): <50%
inhibition at 10 µM (TNK2): < 50%
Percent Competition (MET): <50%
inhibition at 10 µM (ABL1(T315I)): < 50%
inhibition at 10 µM (IGF1R): < 50%
inhibition at 10 µM (MAP4K5): < 50%
inhibition at 10 µM (KIT(V559D,V654A)): < 50%
inhibition at 10 µM (TEC): < 50%
